Experimental findings from ChEMBL document CHEMBL5543145, “Discovery of the First-in-Class G9a/GLP PROTAC Degrader” (J Med Chem, 2024) are described below.

Active and inactive are the calls of the source. The calls are words filed in the database; no cut-off is given here.

The target of test [1] is T1, von Hippel-Lindau disease tumor suppressor/Histone-lysine N-methyltransferase EHMT2 (Homo sapiens, UniProt Q96KQ7+P40337). The test is described as follows: PROTAC activity at G9a/VHL in human 22Rv1 cells assessed as induction of G9a degradation at 3 uM incubated for 24 hrs by Western blot analysis relative to control. The class given is cell-based.
T1 sequence (P40337 whole entry partner): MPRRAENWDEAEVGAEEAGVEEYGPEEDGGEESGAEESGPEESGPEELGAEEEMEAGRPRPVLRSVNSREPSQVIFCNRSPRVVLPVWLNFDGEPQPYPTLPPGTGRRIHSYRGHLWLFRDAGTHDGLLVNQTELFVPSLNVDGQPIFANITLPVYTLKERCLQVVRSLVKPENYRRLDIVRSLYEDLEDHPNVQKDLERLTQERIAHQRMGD
T1 sequence (Q96KQ7 2-1210 limits assumed): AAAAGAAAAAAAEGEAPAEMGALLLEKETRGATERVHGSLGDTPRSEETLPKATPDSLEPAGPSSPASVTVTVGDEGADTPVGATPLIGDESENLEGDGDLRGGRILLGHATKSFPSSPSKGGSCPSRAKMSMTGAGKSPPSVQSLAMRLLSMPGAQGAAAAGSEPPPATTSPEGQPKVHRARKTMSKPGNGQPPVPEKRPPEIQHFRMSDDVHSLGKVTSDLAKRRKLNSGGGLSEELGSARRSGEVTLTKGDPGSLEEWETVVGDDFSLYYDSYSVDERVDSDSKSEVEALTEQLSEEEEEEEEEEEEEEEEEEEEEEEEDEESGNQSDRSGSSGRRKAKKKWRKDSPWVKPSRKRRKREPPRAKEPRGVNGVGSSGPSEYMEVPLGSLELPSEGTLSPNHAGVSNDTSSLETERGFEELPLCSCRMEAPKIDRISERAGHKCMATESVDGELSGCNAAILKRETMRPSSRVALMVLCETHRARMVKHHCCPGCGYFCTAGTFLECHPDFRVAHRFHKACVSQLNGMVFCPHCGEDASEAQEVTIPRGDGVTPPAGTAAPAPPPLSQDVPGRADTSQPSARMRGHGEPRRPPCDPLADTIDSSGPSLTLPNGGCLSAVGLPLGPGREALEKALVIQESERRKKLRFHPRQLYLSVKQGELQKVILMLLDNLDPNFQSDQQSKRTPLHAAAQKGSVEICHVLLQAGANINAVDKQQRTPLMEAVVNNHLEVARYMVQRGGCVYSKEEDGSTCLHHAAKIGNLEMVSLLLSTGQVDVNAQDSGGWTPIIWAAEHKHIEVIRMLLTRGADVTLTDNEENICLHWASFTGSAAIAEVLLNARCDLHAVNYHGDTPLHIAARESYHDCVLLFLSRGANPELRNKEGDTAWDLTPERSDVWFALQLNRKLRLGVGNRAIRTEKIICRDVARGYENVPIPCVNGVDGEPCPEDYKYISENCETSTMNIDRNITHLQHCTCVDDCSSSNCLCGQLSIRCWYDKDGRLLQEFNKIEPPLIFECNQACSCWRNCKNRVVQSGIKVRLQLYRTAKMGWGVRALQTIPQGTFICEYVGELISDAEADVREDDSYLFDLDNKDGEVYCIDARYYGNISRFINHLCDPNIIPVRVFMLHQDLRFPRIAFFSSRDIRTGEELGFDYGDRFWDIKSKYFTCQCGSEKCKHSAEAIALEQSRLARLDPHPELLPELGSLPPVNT
Test [2] deals with T2, von Hippel-Lindau disease tumor suppressor/Histone-lysine N-methyltransferase EHMT1 (Homo sapiens, UniProt Q9H9B1+P40337). The test is described as follows: PROTAC activity at GLP/VHL in human 22Rv1 cells assessed as induction of GLP degradation at 0.3 uM incubated for 24 hrs by Western blot analysis relative to control. The test is classed as cell-based.
T2 sequence (P40337 whole entry partner): as the sequence (P40337 whole entry partner) above
T2 sequence (Q9H9B1 2-1298 limits assumed): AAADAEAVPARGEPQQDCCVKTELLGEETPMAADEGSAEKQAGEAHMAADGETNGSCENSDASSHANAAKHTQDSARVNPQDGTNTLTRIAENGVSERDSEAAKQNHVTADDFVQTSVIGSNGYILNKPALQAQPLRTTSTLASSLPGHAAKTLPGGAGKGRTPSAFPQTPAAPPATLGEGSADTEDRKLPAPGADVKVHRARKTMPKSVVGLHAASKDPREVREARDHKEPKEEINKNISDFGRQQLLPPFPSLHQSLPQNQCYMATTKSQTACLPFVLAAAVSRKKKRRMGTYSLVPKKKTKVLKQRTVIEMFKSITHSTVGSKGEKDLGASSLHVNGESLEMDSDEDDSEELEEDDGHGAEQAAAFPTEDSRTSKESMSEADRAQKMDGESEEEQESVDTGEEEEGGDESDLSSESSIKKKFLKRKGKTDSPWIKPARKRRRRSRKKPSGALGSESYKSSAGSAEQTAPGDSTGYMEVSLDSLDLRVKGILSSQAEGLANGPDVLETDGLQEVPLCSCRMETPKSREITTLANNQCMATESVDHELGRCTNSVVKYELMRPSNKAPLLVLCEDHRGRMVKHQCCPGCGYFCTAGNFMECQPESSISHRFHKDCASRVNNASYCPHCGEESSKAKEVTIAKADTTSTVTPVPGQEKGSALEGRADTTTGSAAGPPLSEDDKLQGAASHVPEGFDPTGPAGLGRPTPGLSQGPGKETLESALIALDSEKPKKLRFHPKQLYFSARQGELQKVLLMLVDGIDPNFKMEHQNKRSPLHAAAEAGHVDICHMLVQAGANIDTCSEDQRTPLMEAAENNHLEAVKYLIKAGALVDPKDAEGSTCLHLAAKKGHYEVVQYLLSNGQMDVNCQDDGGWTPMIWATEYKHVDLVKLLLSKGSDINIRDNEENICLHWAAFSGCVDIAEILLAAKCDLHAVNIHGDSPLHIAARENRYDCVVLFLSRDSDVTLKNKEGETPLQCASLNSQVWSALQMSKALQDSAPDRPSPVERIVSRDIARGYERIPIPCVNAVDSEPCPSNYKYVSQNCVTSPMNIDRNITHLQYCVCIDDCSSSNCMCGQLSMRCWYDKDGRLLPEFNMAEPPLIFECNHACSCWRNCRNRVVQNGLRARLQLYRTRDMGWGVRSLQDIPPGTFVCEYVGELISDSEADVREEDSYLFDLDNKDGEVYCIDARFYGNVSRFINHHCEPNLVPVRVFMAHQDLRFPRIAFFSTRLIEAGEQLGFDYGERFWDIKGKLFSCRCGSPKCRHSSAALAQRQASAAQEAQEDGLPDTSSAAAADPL
For test [3], the target named is T2, von Hippel-Lindau disease tumor suppressor/Histone-lysine N-methyltransferase EHMT1. The test is described as follows: PROTAC activity at GLP/VHL in human 22Rv1 cells assessed as induction of GLP degradation at 3 uM incubated for 24 hrs by Western blot analysis relative to control. The test is classed as cell-based.
Test [4] addresses T1, von Hippel-Lindau disease tumor suppressor/Histone-lysine N-methyltransferase EHMT2. The test is described as follows: PROTAC activity at G9a/VHL in human 22Rv1 cells assessed as induction of G9a degradation at 0.3 uM incubated for 24 hrs by Western blot analysis relative to control. The class given is cell-based.
The target is the same in test [5]. The test is described as follows: PROTAC activity at G9a/VHL in human 22Rv1 cells assessed as effect on G9a level upto 3 uM measured for 24 hrs by Western blot analysis. The class given is cell-based.
Test [6] has as its target T2, von Hippel-Lindau disease tumor suppressor/Histone-lysine N-methyltransferase EHMT1. The test is described as follows: PROTAC activity at GLP/VHL in human 22Rv1 cells assessed as effect on GLP level upto 3 uM measured for 24 hrs by Western blot analysis. The class given is cell-based.
Test [7] has the same target. The test is described as follows: PROTAC activity at GLP/VHL in human 22Rv1 cells assessed as induction of GLP degradation at 1 uM incubated for 24 hrs by Western blot analysis. The class given is cell-based.
The next test deals with CWR22R. The test is described as follows: Cytotoxicity against human 22Rv1 cells assessed as growth inhibition measured for 7 days. The class given is functional. As to conditions: 22Rv1, 168 h, time 7 day.
The target of test [8] is T2, von Hippel-Lindau disease tumor suppressor/Histone-lysine N-methyltransferase EHMT1. The test is described as follows: PROTAC activity at GLP/VHL in human 22Rv1 cells assessed as effect on VHL level at 3 uM incubated for 24 hrs by RT-qPCR analysis. The test is classed as cell-based.
The subject of test [9] is K562. The test is described as follows: Cytotoxicity against human K562 cells assessed as growth inhibition incubated for 7 days. The test is classed as functional. As to conditions: time 7.0 day.
For test [10], the system named is K562. The test is described as follows: Cytotoxicity against human K562 cells assessed as reduction in cell viability incubated for 8 days. The test is classed as functional, cell-based. As to conditions: K562, 192 h.
The next test deals with NCI-H1299. The test is described as follows: Cytotoxicity against human NCI-H1299 cells assessed as growth inhibition incubated for 8 days. The test is classed as functional. As to conditions: NCI-H1299, 192 h, time 8 day.

On to `COc1cc2c(NC3CCN(CCCC(=O)NCCCCCCCC(=O)N[C@H](C(=O)N4C[C@H](O)C[C@H]4C(=O)NCc4ccc(-c5scnc5C)cc4)C(C)(C)C)CC3)nc(N3CCC(F)(F)CC3)nc2cc1OCCCN1CCCC1`, for which the Emax in [1] was 75%; in test [2], below 28%; in [3], 68%.

Take `COc1cc2c(NC3CCN(CCCC(=O)NCCC(=O)N[C@H](C(=O)N4C[C@H](O)C[C@H]4C(=O)NCc4ccc(-c5scnc5C)cc4)C(C)(C)C)CC3)nc(N3CCC(F)(F)CC3)nc2cc1OCCCN1CCCC1`: the Emax is 66% in [4], 61% in test [1], 54% in test [2] and 70% in [3].

For `COc1cc2c(NC3CCN(CCCC(=O)NCCOCCOCCC(=O)N[C@H](C(=O)N4C[C@H](O)C[C@H]4C(=O)NCc4ccc(-c5scnc5C)cc4)C(C)(C)C)CC3)nc(N3CCC(F)(F)CC3)nc2cc1OCCCN1CCCC1`, the maximal response (Emax) is below 13% in [1], below 7% in test [2] and 21% in [3].

With `COc1cc2c(NC3CCN(CCCC(=O)NCCCC(=O)N[C@H](C(=O)N4C[C@H](O)C[C@H]4C(=O)NCc4ccc(-c5scnc5C)cc4)C(C)(C)C)CC3)nc(N3CCC(F)(F)CC3)nc2cc1OCCCN1CCCC1`, the Emax is below 8% in test [4], below 3% in test [2] and 21% in [3].

On to `COc1cc2c(NC3CCN(CCCC(=O)NCCCCCCC(=O)N[C@H](C(=O)N4C[C@H](O)C[C@H]4C(=O)NCc4ccc(-c5scnc5C)cc4)C(C)(C)C)CC3)nc(N3CCC(F)(F)CC3)nc2cc1OCCCN1CCCC1`, for which the Emax in test [4] is below 10%; in test [1] it was below 30%; in test [2], below 7%; in test [3] it was below 20%.

For the molecule `COc1cc2c(NC3CCN(CCCC(=O)NCCCCCCCCCC(=O)N[C@H](C(=O)N4C[C@H](O)C[C@H]4C(=O)NCc4ccc(-c5scnc5C)cc4)C(C)(C)C)CC3)nc(N3CCC(F)(F)CC3)nc2cc1OCCCN1CCCC1`, the Emax in test [4] was 67%; in [1] it was below 92%; in test [2], 84%; in test [3], below 96%.

Consider `COc1cc2c(NC3CCN(CCCC(=O)NCCCCCCCCCCCC(=O)N[C@H](C(=O)N4C[C@@H](O)C[C@@H]4C(=O)NCc4ccc(-c5scnc5C)cc4)C(C)(C)C)CC3)nc(N3CCC(F)(F)CC3)nc2cc1OCCCN1CCCC1`, for which the result in test [5] and in test [6] was inactive.

For `COc1cc2c(NC3CCN(CCCC(=O)NCCCCCCCCCCC(=O)N[C@H](C(=O)N4C[C@H](O)C[C@H]4C(=O)NCc4ccc(-c5scnc5C)cc4)C(C)(C)C)CC3)nc(N3CCC(F)(F)CC3)nc2cc1OCCCN1CCCC1`, the Emax was 79% in [4], below 92% in test [1], 69% in test [2] and below 94% in test [3].

Take `COc1cc2c(NN3CCN(CCCC(=O)NCCCCCCCCC(=O)N[C@H](C(=O)N4C[C@H](O)C[C@H]4C(=O)NCc4ccc(-c5scnc5C)cc4)C(C)(C)C)CC3)nc(N3CCC(F)(F)CC3)nc2cc1OCCCN1CCCC1`: the Emax in [1] was 87%; in test [2], below 27%; in [3] it was 86%.

Take `COc1cc2c(NC3CCN(CCCC(=O)NCCCCC(=O)N[C@H](C(=O)N4C[C@H](O)C[C@H]4C(=O)NCc4ccc(-c5scnc5C)cc4)C(C)(C)C)CC3)nc(N3CCC(F)(F)CC3)nc2cc1OCCCN1CCCC1`: the Emax in test [1] was below 11%; in test [2] it was below 9%; in test [3] it was below 11%.

For the molecule `COc1cc2c(NC3CCN(CCCC(=O)NCCOCCOCCOCCC(=O)N[C@H](C(=O)N4C[C@H](O)C[C@H]4C(=O)NCc4ccc(-c5scnc5C)cc4)C(C)(C)C)CC3)nc(N3CCC(F)(F)CC3)nc2cc1OCCCN1CCCC1`, the maximal response (Emax) was below 16% in test [2] and below 27% in [3].

Consider `COc1cc2c(NC3CCN(CCCC(=O)NCCCCCC(=O)N[C@H](C(=O)N4C[C@H](O)C[C@H]4C(=O)NCc4ccc(-c5scnc5C)cc4)C(C)(C)C)CC3)nc(N3CCC(F)(F)CC3)nc2cc1OCCCN1CCCC1`, for which the figures for the Emax in test [1], in test [2] and in [3] were below 30%, below 5% and below 19%, respectively.

In the case of `COc1cc2c(NC3CCN(CCCC(=O)NCCOCCC(=O)N[C@H](C(=O)N4C[C@H](O)C[C@H]4C(=O)NCc4ccc(-c5scnc5C)cc4)C(C)(C)C)CC3)nc(N3CCC(F)(F)CC3)nc2cc1OCCCN1CCCC1`, the Emax was below 10% in test [2] and 88% in [3].

Consider `COc1cc2c(NC3CCN(C(C)C)CC3)nc(N3CCC(F)(F)CC3)nc2cc1OCCCN1CCCC1`, for which the outcome (in test [7]; in the test on K562 [9]) was inactive. The concentration for 50% growth inhibition (GI50) with CWR22R and in the test on NCI-H1299 was above 10 µM throughout. Further, in test [8], the result was Active. Also, the IC50 in the test on K562 [10] is above 10 µM.
